Laboratory results from US20240270762A1, “PENICILLIN-BINDING PROTEIN INHIBITORS” (priority 2021, published 2024).
In brackets after ≈: the same amount, converted by molar mass.

Tests used:
K. pneumoniae 848844 = experiment: microbe, parasite or virus in culture; format: cell-based; details: Klebsiella pneumoniae, 848844, read-out: MIC K. pneumoniae 848844
K. pneumoniae SI-117 = experiment: microbe, parasite or virus in culture; format: cell-based; details: Klebsiella pneumoniae, SI117, read-out: MIC K. pneumoniae SI-117
N. gonorrhoeae FA1090 = experiment: Liquid broth MIC in Fastidious broth; details: Neisseria gonorrhoeae, FA1090, read-out: Minimum Inhibitory Concentration (MIC), N. gonorrhoeae FA 1090
E. coli AG100 = experiment: microbe, parasite or virus in culture; format: cell-based; details: Escherichia coli, AG100, read-out: MIC E. coli AG100
E. coli 901C = experiment: microbe, parasite or virus in culture; format: cell-based; details: Escherichia coli, read-out: MIC E. coli 901C
N. gonorrhoeae WHO Q = experiment: Liquid broth MIC in Fastidious broth; details: Neisseria gonorrhoeae, read-out: Minimum Inhibitory Concentration (MIC), N. gonorrhoeae WHO Q
[1] = biological target: T1, PBP3 from Pseudomonas aeruginosa (PAO1) (Pseudomonas aeruginosa, UniProt G3XD46); experiment: Bocillin-FL fluorescence polarization competition binding, P. aeruginosa PBP3; details: Binding affinity to P. aeruginosa PBP3; fluorescence polarization competition binding assay using Bocillin-FL; read-out: P. aeruginosa PBP3 Potency
T1 construct: made in house
In short: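 Purified PBPs pre-incubated with inhibitor (E. coli PBP3 1.5 μM, 30 min; P. aeruginosa PBP3 0.75 μM, A. baumannii PBP1a 1 μM and PBP3 0.2 μM, 15 min), then Bocillin-FL 0.1 μM (0.05 μM for PBP1a) added; FP read up to 60 min. EC50 = concentration halving bound Bocillin-FL.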

E. coli AG100A = experiment: Broth microdilution MIC in CAMHB; format: cell-based; details: Escherichia coli, read-out: MIC E. coli AG100A
N. gonorrhoeae WHO Z = experiment: Liquid broth MIC in Fastidious broth; details: Neisseria gonorrhoeae, read-out: Minimum Inhibitory Concentration (MIC), N. gonorrhoeae WHO Z
Experimental: Additional antibacterial testing of the series was performed in 8 reference strains of N. gonorrhoeae (ATCC 49226, FA1090, MS 11, WHO G, WHO L, WHO M, WHO K, WHO X, WHO Z, WHO Q, CDC-0197). ATCC 49226, FA1090, MS11, WHO G, WHO L, and WHO M produce wild type or wild-type like PBP2. WHO K, WHO X, WHO Z, WHO Q, and CDC-0197 produce mosaic PBP2. Liquid broth-based assays were used for antibacterial testing of PBP inhibitors in Neisseria gonorrhoeae. Briefly, cryo-preserved bacterial cultures of clinical strains were streaked for isolation on Chocolate Agar (72 g/L (2×) GC Agar Base (BD #228950) and 2% (2×) Hemoglobin was autoclaved at 121° C. for 20 minutes to sterilize. Once cooled to ˜50° C. the 2×GC Agar Base and 2× Hemoglobin solutions are combined and 1% IsoVitaleX Enrichment (BD #211876) was added to the solution). Strains were incubated at 36° C. and 5% CO2 to allow growth of colonies, 24 hours before inoculum preparation. 2-fold serial dilutions of test compounds were conducted in a 96 well plate with a final volume of 75 μL per well at 2-fold the final desired concentration in Fastidious broth (Remel #R07664). For preparation of assay inoculum, a direct suspension was prepared by aseptically swabbing 10-15 colonies from agar plates into culture tubes containing 2 mL of fresh sterile saline. After the dilution plates were set up, direct suspensions were then diluted in a cuvette containing sterile saline and the optical density was measured at 600 nm. Inocula were diluted such that 75 μL of this culture in Fastidious broth results in a starting bacterial concentration of 5×10^5 CFU/mL when added to the dilution plates. The plates were incubated for ˜24 hours at 36° C. and 5% CO2.

P. aeruginosa ATCC 35151 = experiment: microbe, parasite or virus in culture; format: cell-based; details: Pseudomonas aeruginosa, ATCC35151, read-out: MIC P. aeruginosa ATCC 35151
[2] = system: N. gonorrhoeae ATCC 49226; experiment: Liquid broth MIC in Fastidious broth; details: Neisseria gonorrhoeae, ATCC49226, read-out: Minimum Inhibitory Concentration (MIC), N. gonorrhoeae ATCC 49226
N. gonorrhoeae WHO X = experiment: Liquid broth MIC in Fastidious broth; details: Neisseria gonorrhoeae, read-out: Minimum Inhibitory Concentration (MIC), N. gonorrhoeae WHO X
A. baumannii ATCC 19606 = experiment: microbe, parasite or virus in culture; format: cell-based; details: Acinetobacter baumannii, ATCC19606, read-out: MIC, A. baumannii ATCC 19606
[3] = system: P. aeruginosa (ΔmexAB-oprM); experiment: Broth microdilution MIC in CAMHB; format: cell-based; details: Pseudomonas aeruginosa; read-out: MIC P. aeruginosa ΔmexAB-oprM
N. gonorrhoeae WHO L = experiment: Liquid broth MIC in Fastidious broth; details: Neisseria gonorrhoeae, read-out: Minimum Inhibitory Concentration (MIC), N. gonorrhoeae WHO L
N. gonorrhoeae WHO M = experiment: Liquid broth MIC in Fastidious broth; details: Neisseria gonorrhoeae, read-out: Minimum Inhibitory Concentration (MIC), N. gonorrhoeae WHO M

T1 sequence (G3XD46 whole entry): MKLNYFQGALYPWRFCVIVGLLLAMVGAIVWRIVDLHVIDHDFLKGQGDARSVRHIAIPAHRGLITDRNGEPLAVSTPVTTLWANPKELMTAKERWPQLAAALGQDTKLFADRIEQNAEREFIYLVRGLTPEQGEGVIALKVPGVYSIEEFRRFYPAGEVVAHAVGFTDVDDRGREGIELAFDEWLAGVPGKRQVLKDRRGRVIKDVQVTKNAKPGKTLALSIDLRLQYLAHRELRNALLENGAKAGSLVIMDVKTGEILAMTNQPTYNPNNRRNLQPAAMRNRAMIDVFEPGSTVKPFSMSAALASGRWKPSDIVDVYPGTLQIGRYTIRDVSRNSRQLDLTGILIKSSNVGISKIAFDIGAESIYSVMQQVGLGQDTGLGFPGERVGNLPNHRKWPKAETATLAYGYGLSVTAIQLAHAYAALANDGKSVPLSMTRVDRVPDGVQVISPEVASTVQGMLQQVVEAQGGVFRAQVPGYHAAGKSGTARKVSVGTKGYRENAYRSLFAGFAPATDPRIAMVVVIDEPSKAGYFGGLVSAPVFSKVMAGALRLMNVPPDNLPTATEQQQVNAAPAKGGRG

Compound | MIC (K. pneumoniae 848844) [µg/mL] | MIC (K. pneumoniae SI-117) [µg/mL] | MIC (N. gonorrhoeae FA1090) [µg/mL] | MIC (E. coli AG100) [µg/mL] | MIC (E. coli 901C) [µg/mL] | MIC (N. gonorrhoeae WHO Q) [µg/mL] | IC50 [1] [µM] | MIC (E. coli AG100A) [µg/mL] | MIC (N. gonorrhoeae WHO Z) [µg/mL] | MIC (P. aeruginosa ATCC 35151) [µg/mL] | MIC [2] [µg/mL] | MIC (N. gonorrhoeae WHO X) [µg/mL] | MIC (A. baumannii ATCC 19606) [µg/mL] | MIC [3] [µg/mL] | MIC (N. gonorrhoeae WHO L) [µg/mL] | MIC (N. gonorrhoeae WHO M) [µg/mL]
CS(=O)(=O)N1CCN(C(=O)NC(C(=O)N[C@H]2Cc3cccc(C(=O)O)c3OB2O)c2ccc(P(=O)(O)O)c(O)c2)C1=O (stereo partly drawn) [Example 17, (3R)-2-hydroxy-3-(2-(3-hydroxy-4-phosphonophenyl)-2-(3-(methylsulfonyl)-2-oxoimidazolidine-1-carboxamido)acetamido)-3,4-dihydro-2H-benzo[e][1,2]oxaborinine-8-carboxylic acid] | > 128 | > 128 | < 1 | 8 to 16 (≈ 12.8 to 25.5 µM) | < 1 | < 1 | < 10 | 8 to 16 (≈ 12.8 to 25.5 µM) | < 1 | < 1 | < 1 | < 1 | 2 to 4 (≈ 3.19 to 6.39 µM) | 8 to 16 (≈ 12.8 to 25.5 µM) | < 1 | < 1
CCN1CCN(C(=O)NC(C(=O)N[C@H]2Cc3cccc(C(=O)O)c3OB2O)c2ccc(CP(=O)(O)O)cc2)C(=O)C1=O (stereo partly drawn) [Example 20, (3R)-3-(2-(4-ethyl-2,3-dioxopiperazine-1-carboxamido)-2-(4-(phosphonomethyl)phenyl)acetamido)-2-hydroxy-3,4-dihydro-2H-benzo[e][1,2]oxaborinine-8-carboxylic acid] | > 128 | > 128 | < 1 | 8 to 16 (≈ 13.3 to 26.6 µM) | < 1 | < 1 | < 10 | 8 to 16 (≈ 13.3 to 26.6 µM) | < 1 | < 1 | < 1 | 1 to 2 (≈ 1.66 to 3.32 µM) | 32 to 64 (≈ 53.1 to 106 µM) | 8 to 16 (≈ 13.3 to 26.6 µM) | 1 to 2 (≈ 1.66 to 3.32 µM) | < 1
CCN1CCN(C(=O)NC(C(=O)N[C@H]2Cc3cccc(C(=O)O)c3OB2O)c2ccc(P(=O)(O)O)c(O)c2)C(=O)C1=O (stereo partly drawn) [Example 21, (3R)-3-(2-(4-ethyl-2,3-dioxopiperazine-1-carboxamido)-2-(3-hydroxy-4-phosphonophenyl)acetamido)-2-hydroxy-3,4-dihydro-2H-benzo[e][1,2]oxaborinine-8-carboxylic acid] | > 128 | > 128 | < 1 | 8 to 16 (≈ 13.2 to 26.5 µM) | < 1 | < 1 | < 10 | 8 to 16 (≈ 13.2 to 26.5 µM) | < 1 | < 1 | < 1 | < 1 | 2 to 4 (≈ 3.31 to 6.62 µM) | 32 to 64 (≈ 53 to 106 µM) | < 1 | < 1
CCN1CCN(C(=O)NC(C(=O)N[C@H]2Cc3cccc(C(=O)O)c3OB2O)c2cccc(CP(=O)(O)O)c2)C(=O)C1=O (stereo partly drawn) [Example 22, (3R)-3-(2-(4-ethyl-2,3-dioxopiperazine-1-carboxamido)-2-(3-(phosphonomethyl)phenyl)acetamido)-2-hydroxy-3,4-dihydro-2H-benzo[e][1,2]oxaborinine-8-carboxylic acid] | > 128 | > 128 | < 1 | 8 to 16 (≈ 13.3 to 26.6 µM) | < 1 | 1 to 2 (≈ 1.66 to 3.32 µM) | < 10 | 8 to 16 (≈ 13.3 to 26.6 µM) | 1 to 2 (≈ 1.66 to 3.32 µM) | < 1 | 1 to 2 (≈ 1.66 to 3.32 µM) | 4 to 8 (≈ 6.64 to 13.3 µM) | 32 to 64 (≈ 53.1 to 106 µM) | 8 to 16 (≈ 13.3 to 26.6 µM) | 16 to 32 (≈ 26.6 to 53.1 µM) | < 1
CCN1CCN(C(=O)NC(C(=O)N[C@H]2Cc3cccc(C(=O)O)c3OB2O)c2c(F)cc(P(=O)(O)O)cc2F)C(=O)C1=O (stereo partly drawn) [Example 25, (3R)-3-(2-(2,6-difluoro-4-phosphonophenyl)-2-(4-ethyl-2,3-dioxopiperazine-1-carboxamido)acetamido)-2-hydroxy-3,4-dihydro-2H-benzo[e][1,2]oxaborinine-8-carboxylic acid] | > 128 | > 128 | < 1 | 32 to 64 (≈ 51.3 to 103 µM) | < 1 | 1 to 2 (≈ 1.6 to 3.2 µM) | < 10 | 32 to 64 (≈ 51.3 to 103 µM) | < 1 | 2 to 4 (≈ 3.2 to 6.41 µM) | < 1 | 4 to 8 (≈ 6.41 to 12.8 µM) | > 128 | 32 to 64 (≈ 51.3 to 103 µM) | 1 to 2 (≈ 1.6 to 3.2 µM) | < 1
